Here are results for 103 compounds from the RepoRT retention time repository (doi:10.1016/j.chroma.2014.05.003).

The data set can be described thus: RP, Agilent ZORBAX Eclipse Plus C18, 50 × 4.6 mm, 1.8 µm, 0.5 mL/min, estimated dead time 1.1 min; A: water + 0.1% formic acid; B: acetonitrile + 0.1% formic acid; gradient (min/%B) 0/10 3/10 25/100 28/100. Particulars: stereoisomer not certain.

As for `CS(=O)(=O)Nc1nc2cc(-c3ccc([N+](=O)[O-])cc3)c([N+](=O)[O-])cc2[nH]c1=O`, the LC retention time was 11.5 min.

As for `COc1ccc2cc(C(C)C(=O)O)ccc2c1` (stereo not drawn), the LC retention time is 13.8 min.

`CNC(=O)C=C(C)OP(=O)(OC)OC`: the LC retention time was 5.55 min.

`CC(C)c1ccc(NC(=O)N(C)C)cc1`: the LC retention time was 12.9 min.

For the compound `CCCOC(=O)NCCCN(C)C`, the LC retention time is 2.3 min. To `CCOC(=O)CC(SP(=S)(OC)OC)C(=O)OCC` (stereo not drawn) belongs 17 min; to `CCC1OC(=O)C(C)C(OC2CC(C)(OC)C(O)C(C)O2)C(C)C(OC2OC(C)CC(N(C)C)C2O)C(C)(O)CC(C)C(=NOCOCCOC)C(C)C(O)C1(C)O` (stereo not drawn), 11.3 min. For the compound `Cn1c(=O)c2c(ncn2C)n(C)c1=O`, the LC retention time is 5.08 min. With `COP(=O)(OC)OC(C)=CC(=O)N(C)C`, the LC retention time was 6.41 min. The same measure for `CNC(=O)ON=CC(C)(C)S(C)(=O)=O`: 4.81 min; for `CCNc1nc(NC(C)C(C)C)nc(SC)n1` (stereo not drawn): 13.1 min.

On to `CCC(C)c1ccccc1OC(=O)NC` (stereo not drawn), for which the LC retention time was 15 min. For `Cc1onc(-c2ccccc2)c1C(=O)NC1C(=O)N2C1SC(C)(C)C2C(=O)O` (stereo not drawn), the LC retention time is 12.8 min. To `CCOP(=S)(OCC)Oc1cc(C)nc(C(C)C)n1` belongs 18.8 min; to `CNC(=O)Oc1ccc(N(C)C)c(C)c1`, 1.85 min.

Take `CCOc1ccc(NC(C)=O)cc1`: the LC retention time is 9.38 min. To `CCCCN(CCCC)N=O` belongs 15.9 min; to `CC(C)C1(C)N=C(c2ncccc2C(=O)O)NC1=O` (stereo not drawn), 16.5 min; to `CC(C)(C)NCC(O)COc1nsnc1N1CCOCC1` (stereo not drawn), 6.87 min. With `CN(C)CCOC(c1ccccc1)c1ccccc1`, the LC retention time is 9.81 min. Turning to `CN(C)C(=O)Nc1cccc(OC(=O)NC(C)(C)C)c1`, the LC retention time was 11.6 min. For `Nc1nc(N)nc(NC2CC2)n1`, the LC retention time was 1.36 min.

As to `COc1ccc2c3c1OC1C(O)C=CC4C(C2)N(C)CCC341` (stereo not drawn), the LC retention time was 3.16 min. To `CN1CCC23c4c5ccc(O)c4OC2C(O)C=CC3C1C5` (stereo not drawn) belongs 1.47 min; to `CCC(C)(CC)c1cc(NC(=O)c2c(OC)cccc2OC)on1`, 16.5 min. In the case of `CCSC(=O)N(CC)C1CCCCC1`, the LC retention time was 19.8 min.

Consider `CNc1nc(NC(C)C)nc(SC)n1`, for which the LC retention time was 8.8 min.

Turning to `O=C1CCc2cccc3c2N1CC3`, the LC retention time was 10.2 min.

Take `COC(=O)Nc1nc2ccc(C(=O)c3ccccc3)cc2[nH]1`: the LC retention time was 10.7 min.

Take `COC(=O)c1ccccc1CS(=O)(=O)NC(=O)Nc1nc(OC)cc(OC)n1`: the LC retention time is 14.2 min. `CN1C2CCC1CC(OC(=O)C(CO)c1ccccc1)C2` (stereo not drawn): the LC retention time was 6.29 min. To `CCNc1nc(NC(C)(C)C)nc(SC)n1` belongs 18.3 min; to `CCC(C)C(=O)OC1CCC=C2C=CC(C)C(CCC3CC(O)CC(=O)O3)C21` (stereo not drawn), 15.7 min. Turning to `O=C(NN=Cc1ccc([N+](=O)[O-])o1)c1ccc(O)cc1`, the LC retention time is 9.51 min. Consider `Cc1c(N)c(=O)n(-c2ccccc2)n1C`, for which the LC retention time was 2.39 min.

In the case of `CN(C)c1nc(=O)n(C2CCCCC2)c(=O)n1C`, the LC retention time was 10.1 min.

Consider `CCOC(=O)CCN(SN(C)C(=O)Oc1cccc2c1OC(C)(C)C2)C(C)C`, for which the LC retention time is 20.8 min. With `CC(Cc1ccc(C(C)(C)C)cc1)CN1CCCCC1` (stereo not drawn), the LC retention time was 12.5 min. To `CON=C(C(=O)OC)c1ccccc1COc1ccccc1C` belongs 18 min; to `CC(C)N1C(=O)N(c2ccccc2)CSC1=NC(C)(C)C`, 18.3 min; to `CNC(=O)Oc1ccccc1OC(C)C`, 11.9 min. As to `COP(=S)(OC)Oc1ccc(S(=O)(=O)N(C)C)cc1`, the LC retention time is 15.3 min. Take `CC(C)Cc1ccc(C(C)C(=O)O)cc1` (stereo not drawn): the LC retention time is 16.6 min.

As to `CNC(=C[N+](=O)[O-])NCCSCc1ccc(CN(C)C)o1`, the LC retention time is 2.03 min.

With `CCCC1CC(C(=O)NC(C(C)O)C2OC(SC)C(O)C(O)C2O)N(C)C1` (stereo not drawn), the LC retention time was 3.66 min. On to `CC1(C)SC2C(NC(=O)C(N)c3ccccc3)C(=O)N2C1C(=O)O` (stereo not drawn), for which the LC retention time is 7.93 min. The same measure for `Nc1ccc(-c2ccc(N)cc2)cc1`: 1.36 min; for `CNC(C)C(O)c1ccccc1` (stereo not drawn): 2.78 min. To `COP(=O)(NC(C)=O)SC` (stereo not drawn) belongs 1.86 min. Regarding `CCCCCCCCCCCCCCCC[N+](C)(C)Cc1ccccc1`, the LC retention time is 20.6 min.

Turning to `Cn1c(=O)[nH]c(=O)c2[nH]cnc21`, the LC retention time is 1.47 min. Consider `CN1C(=O)CCC1c1cccnc1` (stereo not drawn), for which the LC retention time is 1.35 min.

Take `COC(=O)C(C)N(C(=O)Cc1ccccc1)c1c(C)cccc1C` (stereo not drawn): the LC retention time was 18.1 min. To `CC(C)N1C(=O)c2ccccc2NS1(=O)=O` belongs 12.7 min.

Regarding `CN(C)C(=O)Nc1ccccc1`, the LC retention time is 7.72 min. On to `Oc1ccccc1-c1ccccc1`, for which the LC retention time is 16.3 min. With `Cc1ccnc(NS(=O)(=O)c2ccc(N)cc2)n1`, the LC retention time is 5.73 min. `COC(=O)Nc1nc2ccc(S(=O)c3ccccc3)cc2[nH]1` (stereo not drawn): the LC retention time is 8.64 min. The same measure for `CCC1CCCC(OC2CCC(N(C)C)C(C)O2)C(C)C(=O)C2=CC3C(C=CC4CC(OC5OC(C)C(OC)C(OC)C5OC)CC43)C2CC(=O)O1` (stereo not drawn): 14.9 min; for `CC(C)NCC(O)COc1cccc2ccccc12` (stereo not drawn): 9.19 min.

On to `CSc1nnc(C(C)(C)C)c(=O)n1N`, for which the LC retention time was 11.5 min. To `CCCN(CCC)c1c([N+](=O)[O-])cc(S(N)(=O)=O)cc1[N+](=O)[O-]` belongs 17 min. To `Cc1cc(=O)n(-c2ccccc2)n1C` belongs 6.97 min. To `CCSC(=O)N1CCCCCC1` belongs 16 min; to `COC(=O)NS(=O)(=O)c1ccc(N)cc1`, 5.43 min; to `CCOP(=S)(OCC)Oc1cnc2ccccc2n1`, 18.2 min.

`CC1=NNC(=O)N(N=Cc2cccnc2)C1`: the LC retention time is 1.4 min.

For the compound `CN(C)C1C(=O)C(C(N)=O)=C(O)C2(O)C(=O)C3=C(O)c4c(O)cccc4C(C)(O)C3CC12` (stereo not drawn), the LC retention time was 6.62 min. The same measure for `COc1cc(NS(=O)(=O)c2ccc(N)cc2)nc(OC)n1`: 10.4 min; for `CNC(=O)Oc1cccc2c1OC(C)(C)C2O` (stereo not drawn): 7.87 min. On to `CCCSc1ccc2nc(NC(=O)OC)[nH]c2c1`, for which the LC retention time is 10.5 min. With `COC(=O)NN=Cc1c[n+]([O-])c2ccccc2[n+]1[O-]`, the LC retention time is 6.32 min. Regarding `CCn1cc(C(=O)O)c(=O)c2cnc(N3CCNCC3)nc21`, the LC retention time is 4.78 min.

As to `CNC(=O)Oc1cc(C)cc(C(C)C)c1`, the LC retention time was 15 min.

With `CCOP(=S)(OCC)SCSP(=S)(OCC)OCC`, the LC retention time was 21.7 min. To `CN(C)c1ccc(C(c2ccccc2)c2ccc(N(C)C)cc2)cc1` belongs 12.6 min. Consider `COC(=O)Nc1nc2ccccc2[nH]1`, for which the LC retention time was 3.27 min. To `COC(=O)C=C(C)OP(=O)(OC)OC` belongs 9.1 min. Regarding `CC(C)NCC(O)COc1ccc(CC(N)=O)cc1` (stereo not drawn), the LC retention time was 1.76 min. The same measure for `Nc1ncn[nH]1`: 1.36 min. To `COc1cccc(C(=O)NN(C(=O)c2cc(C)cc(C)c2)C(C)(C)C)c1C` belongs 16.6 min. To `CCOC(=O)CC(SP(=O)(OC)OC)C(=O)OCC` (stereo not drawn) belongs 11.8 min; to `COP(=S)(OC)SCn1nnc2ccccc2c1=O`, 15.4 min; to `COC(=O)C1C(OC(=O)c2ccccc2)CC2CCC1N2C` (stereo not drawn), 7.3 min. Consider `CCOP(=S)(OCC)SCn1nnc2ccccc2c1=O`, for which the LC retention time is 17.4 min. The same measure for `CC12CCC3c4ccc(O)cc4CCC3C1CC(O)C2O` (stereo not drawn): 9.36 min; for `CCCCCc1cc(O)c2c(c1)OC(C)(C)C1CCC(C(=O)O)=CC21` (stereo not drawn): 19.1 min; for `CON(C(=O)c1cc(C)oc1C)C1CCCCC1`: 17.7 min. For the compound `COP(=S)(OC)Oc1ccc([N+](=O)[O-])cc1`, the LC retention time was 16.3 min. With `CC12CCC(=O)C=C1CCC1C2CCC2(C)C(O)CCC12` (stereo not drawn), the LC retention time was 13.7 min. To `CN(C(=O)COc1nc2ccccc2s1)c1ccccc1` belongs 16 min.

For the compound `COc1ccc(Oc2ccc(NC(=O)N(C)C)cc2)cc1`, the LC retention time was 13.3 min. Regarding `CNC(C)Cc1ccc2c(c1)OCO2` (stereo not drawn), the LC retention time is 5.39 min. With `NC(=O)N1c2ccccc2C=Cc2ccccc21`, the LC retention time was 11.2 min. To `CC(C(=O)O)c1cccc(C(=O)c2ccccc2)c1` (stereo not drawn) belongs 13.7 min. As to `CC(C)C1(C)N=C(c2nc3ccccc3cc2C(=O)O)NC1=O` (stereo not drawn), the LC retention time was 11 min. To `Cc1nc(N(C)C)nc(OC(=O)N(C)C)c1C` belongs 6.86 min; to `CC1(C)SC2C(NC(=O)Cc3ccccc3)C(=O)N2C1C(=O)O` (stereo not drawn), 10.8 min; to `CC(C)NCC(O)COc1cccc2[nH]ccc12` (stereo not drawn), 5.55 min. Regarding `CC(=O)OC1C=CC2C3Cc4ccc(O)c5c4C2(CCN3C)C1O5` (stereo not drawn), the LC retention time is 4.94 min.

In the case of `CCN(CC)C(=O)c1cccc(C)c1`, the LC retention time is 12.8 min.

With `COC(=O)Nc1nc2ccc(Sc3ccccc3)cc2[nH]1`, the LC retention time was 12.6 min. The same measure for `Cc1nnc(NS(=O)(=O)c2ccc(N)cc2)s1`: 7.12 min.
